Assay results published in patent publication US20250051356A1, “RIFABUTIN ANALOGS FOR THE TREATMENT OF DISEASE” (priority 2021, published 2025).
In brackets after ≈: the same amount, converted by molar mass.

Assays:
Assay type in all cases: cell-based
[1] = tested on: M. abscessus subsp. abscessus ATCC 19977; experiment: MIC against M. abscessus in Middlebrook 7H9 + ADC; conditions: Mycobacteroides abscessus, ATCC19977; ATCC 19977; 7H9 + ADC; read-out: MIC M. abscessus
[2] = tested on: A. baumannii (HUMC1 strain); experiment: MIC by broth microdilution against A. baumannii in RPMI + 10% FCS; conditions: Acinetobacter baumannii; HUMC1 strain; RPMI + 10% FCS; read-out: MIC A. baumannii
[3] = tested on: S. aureus (UAMS-1625 strain); experiment: MIC by broth microdilution against S. aureus; conditions: Staphylococcus aureus, read-out: MIC S. aureus

CO[C@H]1/C=C/O[C@@]2(C)Oc3c(C)c(O)c4c(c3C2=O)C2=NC3(CCN(CC(C)C)CC3)NC2=C(NC(=O)/C(C)=C\C=C\[C@H](C)[C@H](O)[C@@H](C)[C@@H](O)[C@@H](C)[C@H](OC(=O)CC(=O)NCC2CCN(C)CC2)[C@@H]1C)C4=O [Compound 5]
MIC [1]: 1 µg/mL
MIC [2]: ≤ 0.002 µg/mL
MIC [3]: 0.125 µg/mL (≈ 0.125 µM)

CO[C@H]1/C=C/O[C@@]2(C)Oc3c(C)c(O)c4c(c3C2=O)C2=NC3(CCN(CC(C)C)CC3)NC2=C(NC(=O)/C(C)=C\C=C\[C@H](C)[C@H](O)[C@@H](C)[C@@H](O)[C@@H](C)[C@H](OC(=O)CC(=O)NC2CCN(C)CC2)[C@@H]1C)C4=O [Compound 6]
MIC [1]: 1 µg/mL
MIC [2]: ≤ 0.002 µg/mL
MIC [3]: 0.03 µg/mL (≈ 0.0304 µM)

CO[C@H]1/C=C/O[C@@]2(C)Oc3c(C)c(O)c4c(c3C2=O)C2=NC3(CCN(CC(C)C)CC3)NC2=C(NC(=O)/C(C)=C\C=C\[C@H](C)[C@H](O)[C@@H](C)[C@@H](O)[C@@H](C)[C@H](OC(=O)CC(=O)N2CCC(N(C)C)CC2)[C@@H]1C)C4=O [Compound 7]
MIC [1]: 1 µg/mL
MIC [2]: ≤ 0.002 µg/mL
MIC [3]: 0.016 µg/mL (≈ 0.016 µM)

CO[C@H]1/C=C/O[C@@]2(C)Oc3c(C)c(O)c4c(c3C2=O)C2=NC3(CCN(CC(C)C)CC3)NC2=C(NC(=O)/C(C)=C\C=C\[C@H](C)[C@H](O)[C@@H](C)[C@@H](O)[C@@H](C)[C@H](OC(=O)CC(=O)N2CCCCC2)[C@@H]1C)C4=O [Compound 8]
MIC [1]: 0.5 µg/mL
MIC [2]: 0.004 µg/mL
MIC [3]: 0.016 µg/mL (≈ 0.0167 µM)

CO[C@H]1/C=C/O[C@@]2(C)Oc3c(C)c(O)c4c(c3C2=O)C2=NC3(CCN(CC(C)C)CC3)NC2=C(NC(=O)/C(C)=C\C=C\[C@H](C)[C@H](O)[C@@H](C)[C@@H](O)[C@@H](C)[C@H](OC(=O)CC(=O)N2CCN(C)CC2)[C@@H]1C)C4=O [Compound 10]
MIC [1]: 1 µg/mL
MIC [2]: ≤ 0.002 µg/mL
MIC [3]: 0.016 µg/mL (≈ 0.0164 µM)

CO[C@H]1/C=C/O[C@@]2(C)Oc3c(C)c(O)c4c(c3C2=O)C2=NC3(CCN(CC(C)C)CC3)NC2=C(NC(=O)/C(C)=C\C=C\[C@H](C)[C@H](O)[C@@H](C)[C@@H](O)[C@@H](C)[C@H](OC(=O)CC(=O)N2CCN(c3ccccc3S(N)(=O)=O)CC2)[C@@H]1C)C4=O [Compound 12]
MIC [1]: 0.5 µg/mL
MIC [2]: 0.03 µg/mL
MIC [3]: 0.125 µg/mL (≈ 0.112 µM)

CO[C@H]1/C=C/O[C@@]2(C)Oc3c(C)c(O)c4c(c3C2=O)C2=NC3(CCN(CC(C)C)CC3)NC2=C(NC(=O)/C(C)=C\C=C\[C@H](C)[C@H](O)[C@@H](C)[C@@H](O)[C@@H](C)[C@H](OC(=O)CC(=O)N2CCC(N3CCN(C)C(=O)C3)CC2)[C@@H]1C)C4=O [Compound 15]
MIC [1]: 1 µg/mL
MIC [2]: 0.004 µg/mL
MIC [3]: 0.016 µg/mL (≈ 0.0149 µM)

CCOC(=O)CCNC(=O)CC(=O)O[C@H]1[C@H](C)[C@H](O)[C@H](C)[C@@H](O)[C@@H](C)/C=C/C=C(/C)C(=O)NC2=C3NC4(CCN(CC(C)C)CC4)N=C3c3c(c(O)c(C)c4c3C(=O)[C@@](C)(O/C=C/[C@H](OC)[C@H]1C)O4)C2=O [Compound 16]
MIC [1]: 2 µg/mL
MIC [2]: 0.004 µg/mL
MIC [3]: 0.03 µg/mL (≈ 0.0303 µM)

COC(=O)CNC(=O)CC(=O)O[C@H]1[C@H](C)[C@H](O)[C@H](C)[C@@H](O)[C@@H](C)/C=C/C=C(/C)C(=O)NC2=C3NC4(CCN(CC(C)C)CC4)N=C3c3c(c(O)c(C)c4c3C(=O)[C@@](C)(O/C=C/[C@H](OC)[C@H]1C)O4)C2=O [Compound 17]
MIC [1]: 2 µg/mL
MIC [2]: ≤ 0.002 µg/mL
MIC [3]: 0.03 µg/mL (≈ 0.0312 µM)

CO[C@H]1/C=C/O[C@@]2(C)Oc3c(C)c(O)c4c(c3C2=O)C2=NC3(CCN(CC(C)C)CC3)NC2=C(NC(=O)/C(C)=C\C=C\[C@H](C)[C@H](O)[C@@H](C)[C@@H](O)[C@@H](C)[C@H](OC(=O)CC(=O)Nc2ccc(CN3CCCCC3)cc2)[C@@H]1C)C4=O [Compound 18]
MIC [1]: 1 µg/mL
MIC [2]: ≤ 0.002 µg/mL
MIC [3]: 0.06 µg/mL (≈ 0.0564 µM)

CO[C@H]1/C=C/O[C@@]2(C)Oc3c(C)c(O)c4c(c3C2=O)C2=NC3(CCN(CC(C)C)CC3)NC2=C(NC(=O)/C(C)=C\C=C\[C@H](C)[C@H](O)[C@@H](C)[C@@H](O)[C@@H](C)[C@H](OC(=O)CC(=O)NCCN2CCN(C)CC2)[C@@H]1C)C4=O [Compound 20]
MIC [1]: 1 µg/mL
MIC [2]: ≤ 0.002 µg/mL
MIC [3]: 0.03 µg/mL (≈ 0.0295 µM)

CO[C@H]1/C=C/O[C@@]2(C)Oc3c(C)c(O)c4c(c3C2=O)C2=NC3(CCN(CC(C)C)CC3)NC2=C(NC(=O)/C(C)=C\C=C\[C@H](C)[C@H](O)[C@@H](C)[C@@H](O)[C@@H](C)[C@H](OC(=O)CC(=O)NCCN2CCOCC2)[C@@H]1C)C4=O [Compound 23]
MIC [1]: 1 µg/mL
MIC [2]: ≤ 0.002 µg/mL
MIC [3]: 0.03 µg/mL (≈ 0.0299 µM)

CO[C@H]1/C=C/O[C@@]2(C)Oc3c(C)c(O)c4c(c3C2=O)C2=NC3(CCN(CC(C)C)CC3)NC2=C(NC(=O)/C(C)=C\C=C\[C@H](C)[C@H](O)[C@@H](C)[C@@H](O)[C@@H](C)[C@H](OC(=O)CC(=O)OCc2ccccc2)[C@@H]1C)C4=O [Compound 26]
MIC [1]: 4 µg/mL
MIC [2]: 0.03 µg/mL
MIC [3]: 0.5 µg/mL (≈ 0.51 µM)
